Legend:
human salivary amylase = target: T1, human salivary amylase (Homo sapiens, UniProt P0DUB6); assay: in vitro amylase digestion assay of insulin-glycogen (SDS-PAGE); assay type: in vitro ADME; settings: SDS-PAGE after incubation with amylase
T1 construct: from tissue; host or cells: human saliva (whole, diluted in 1x PBS)
T1 sequence (P0DUB6 16-511): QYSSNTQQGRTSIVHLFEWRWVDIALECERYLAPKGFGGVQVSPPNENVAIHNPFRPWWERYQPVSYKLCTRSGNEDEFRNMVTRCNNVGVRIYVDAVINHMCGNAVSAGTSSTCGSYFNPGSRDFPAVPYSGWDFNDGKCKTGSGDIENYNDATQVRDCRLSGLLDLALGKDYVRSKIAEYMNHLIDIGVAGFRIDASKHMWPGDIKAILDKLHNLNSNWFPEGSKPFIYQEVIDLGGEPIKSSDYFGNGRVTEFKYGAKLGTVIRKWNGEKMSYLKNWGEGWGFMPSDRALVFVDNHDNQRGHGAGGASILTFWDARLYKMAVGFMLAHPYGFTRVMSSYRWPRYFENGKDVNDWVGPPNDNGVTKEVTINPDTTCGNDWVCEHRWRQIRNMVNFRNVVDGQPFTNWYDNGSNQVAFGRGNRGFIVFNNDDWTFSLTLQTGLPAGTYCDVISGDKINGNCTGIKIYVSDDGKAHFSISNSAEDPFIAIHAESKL
Method: As previously discussed, once an insulin-glycogen conjugate is released from an inventive glucose-responsive material, it is digested by amylases that breakdown the large molecular weight insulin-glycogen conjugate into low molecular weight conjugates in vivo. […] An in vitro amylase digestion assay was performed to qualify the proposed insulin-glycogen degradation mechanism. […] The saliva sample was serially diluted 1:2 in 1×PBS buffer to 1:512.90 μL aliquots of each of the 1:4, 1:16, 1:64, 1:128, 1:256, and 1:512 dilutions were added to pre-prepared microcentrifuge tubes containing 90 μL of undiluted insulin-glycogen. […] The gels were run in SDS running buffer for 45 minutes to an hour at a constant voltage of 150 V. Under these conditions, the amylase completely digested the insulin-glycogen conjugate into native MW insulin at the 1:16 dilution level as quantified by the relative band density of high MW conjugate to that of native MW insulin.
SDS-PAGE has confirmed that the insulin-glycogen conjugate is essentially free from unconjugated insulin (FIG. 5a). […] Serum was collected from the other catheter as a function of time and analyzed for fluorescence (fmax, Molecular Devices, Sunnyvale, Calif.) to determine glycogen absorption rate and insulin levels (RIA, Joslin Diabetes Center).

[1] = test system: fasted normal rats (Male Sprague-Dawley); assay: blood glucose depression and serum insulin profiles after subcutaneous injection; assay type: in vivo, rat
Method: Subcutaneous injections of insulin-polymer conjugates or insulin controls are administered at a dose between 1 and 10 equivalent U insulin/kg body weight behind the neck of fasted normal […] rats (Male Sprague-Dawley, 200-250 g, n=2-4). Blood samples are collected via tail vein bleeding at −15 and 0 minutes, and at 15, 30, 45, 60, 90, 120, 180, 240, 300 and 360 minutes after injection. Blood glucose values are measured using commercially available test strips (Precision Xtra, Abbott Laboratories, Abbott Park, Ill.). The remaining blood is centrifuged to obtain serum and stored in a freezer until measured for serum insulin levels. Serum insulin is measured using an ELISA kit (ALPCO Diagnostics, Windham, N.H.). Pharmacodynamic (PD) parameters such as time to reach minimum blood glucose concentration (Tnadir) and duration over which the blood glucose level remains below 70% of initial value (T70% BGL), are determined according to published methods for subcutaneous delivery. Pharmacokinetic (PK) parameters such as time to reach maximum serum insulin concentration (Tmax), mean insulin residence time (MRT), and mean insulin absorption time (MAT), are determined according to published methods for subcutaneous delivery using commercially available ELISA assays (ALPCO Diagnostics, Windham, N.H.). The blood glucose depression curve and corresponding serum insulin profile for each formulation may then be compared to those obtained for an insulin control to determine any differences in the timing and extent of the insulin action.
The in vivo digestion behavior of the insulin-glycogen conjugate was assessed via subcutaneous injection (alone without a glucose-binding molecule such as Con A) into normal male SD rats.
Subcutaneous injections of insulin-dextran were administered using 0.25 ml of a sterilized 1×PBS solution (0.88 equivalent mg insulin/[…]) behind the neck of two fasted normal rat groups (Male Sprague-Dawley, 200-250 g, n=4). Measurements of glucose and insulin values from tail vein blood samples were performed at −15 and 0 minutes, and at 15, 30, 45, 60, 90, 120, 180, 240, 300 and 360 minutes after injection.

[2] = test system: normal and STZ-diabetic rats; assay: disappearance of fluorescently labeled gel components from the injection site; assay type: in vivo, rat; settings: gel injected under the skin
Text: The inventive gel of Example 21, has viscosity characteristics that allow easy loading and injection through a standard 27½G insulin syringe obviating the need for invasive surgery. […] This is necessary to avoid unwanted material accumulation after repeated daily dosing. To illustrate this point, gels were synthesized from (i) fluorescently-labeled insulin-glycogen conjugate (FITC-conjugate)/unlabeled Con A and (ii) unlabeled insulin-glycogen conjugate/fluorescently-labeled Con A (FITC-Con A) in the presence of India ink (SpeedBall® Superblack) and injected under the skin of both normal and STZ-diabetic rats on Days 2, 1, and 0 in order to simultaneously observe the injection site post-mortem and monitor the rate of disappearance of each of the components by fluorescence imaging.
Taken together, not only is the insulin-glycogen conjugate removed completely from the injection site, its rate of disappearance is dependent on the glycemic state of the animal (i.e. hyperglycemia leads to more rapid elimination of material from the site).

non-diabetic felines = assay: euglycemic clamp protocol in non-diabetic felines; assay type: in vivo, feline; settings: 0.5 U/kg conjugate (FIG. 6)
[3] = FIG. 4b, s.c. 2.5 U of conjugated insulin/kg, male SD rats
[4] = s.c. injection alone, normal male SD rats
[5] = s.c. 0.25 ml, fasted normal male SD rats

Row | Substance | degradation by amylases (human salivary amylase) | T70% BGL [1, 3] [min] | Tnadir (blood glucose) [1, 3] [min] | time to reach glucose nadir (Tnadir) [1, 4] [min] | time to return to within 70% of fasting glucose levels (T70% BGL) [1, 4] | speed of insulin action compared with unconjugated insulin ([1]; s.c., normal male SD rats) | elimination from the injection site (fluorescence imaging) ([2]; STZ-diabetic rats) | elimination from the injection site (fluorescence imaging) ([2]; normal rats) | conjugate bioactivity in euglycemic clamp (non-diabetic felines) | time serum glucose levels remain depressed post injection [1, 5] | time to reach the glucose nadir (Tnadir) [1, 5] | time to return to within 70% of fasting glucose levels (T70% BGL) [1, 5]
1 | insulin-glycogen conjugate: human recombinant insulin covalently linked to glycogen by CNBr or CDAP coupling; glycogen source differs between examples | rapidly degraded by amylases in vitro and in vivo | ~150 | 30 to 45 | 30 to 45 | less than 180 minutes | acts just as rapidly as unconjugated insulin in vivo | completely eliminated from the injection site in STZ-diabetic rats both one and two days after injection | still remained at the injection site after one day | confirmed the conjugate bioactivity |  |  | 
2 | insulin-dextran: human recombinant insulin coupled to dextran (MW=70K) by CNBr; comparative conjugate [reference compound] |  |  |  |  |  |  |  |  |  | at least five | about 3 h | greater than 2.5 hours
